Test systems include A549 NSCLC; DU-145 prostate; K-562 leukemia; KM12 colon; LOX IMVI melanoma; NCI-H522 lung; OVCAR-3 ovarian; OVCAR-4 ovarian; SK-MEL-2 melanoma; SNB-75 CNS.
What all share (test): NCI tumour cell line growth inhibition, 48 h

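All cell lines were grown in 96-well plates and treated with compound for 48 hours. TGI marks complete inhibition of growth.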

Turning to `O=c1oc2ccc3ccccc3c2cc1-c1cn2ccsc2n1`, the TGI was > 100 µM in the assay with A549 NSCLC; 47.3 µM with DU-145 prostate; 82.4 µM in the assay with K-562 leukemia; 66.2 µM with KM12 colon; 31.7 µM with LOX IMVI melanoma; 36.8 µM in the assay with NCI-H522 lung. The TGI in the assay with OVCAR-3 ovarian is 43.8 µM; with OVCAR-4 ovarian it was 40.7 µM; in the assay with SK-MEL-2 melanoma, > 100 µM; in the assay with SNB-75 CNS, > 100 µM.
Regarding `CCOC(=O)CSc1nc(N)c2c(-c3ccccc3)c3c(nc2n1)CCCC3`, the TGI in the assay with A549 NSCLC, with DU-145 prostate, in the assay on K-562 leukemia, with KM12 colon, in the assay with LOX IMVI melanoma and in the assay with NCI-H522 lung was > 100 µM throughout. Besides, the TGI with OVCAR-3 ovarian, in the assay with OVCAR-4 ovarian, with SK-MEL-2 melanoma and with SNB-75 CNS was > 100 µM throughout.
With `COc1ccc(N=Nc2c(-c3c(OC)cc4occc4c3OC)[nH]c(=O)c(C#N)c2C)cc1`, the TGI in the assay on A549 NSCLC, in the assay with DU-145 prostate, in the assay with K-562 leukemia, in the assay on KM12 colon, in the assay on LOX IMVI melanoma and in the assay with NCI-H522 lung was > 100 µM each time. The TGI in the assay on OVCAR-3 ovarian, in the assay on OVCAR-4 ovarian, in the assay with SK-MEL-2 melanoma and in the assay with SNB-75 CNS was > 100 µM throughout.
Regarding `CN(/N=C1\C(=O)Nc2ccccc21)c1ccccc1`, the TGI in the assay on A549 NSCLC, in the assay on DU-145 prostate, with K-562 leukemia, with KM12 colon, in the assay on LOX IMVI melanoma and in the assay on NCI-H522 lung was > 100 µM each time. The TGI in the assay on OVCAR-3 ovarian, with OVCAR-4 ovarian, with SK-MEL-2 melanoma and in the assay with SNB-75 CNS was > 100 µM throughout.
As for `COC(=O)/C=C(/C=C1/C(C#N)=C(N)N(c2ccc(Cl)cc2)C1(C)/C(=C\C(=O)OC)C(=O)OC)C(=O)OC` (stereo not given), the TGI is > 100 µM in the assay with A549 NSCLC; 89.2 µM in the assay on DU-145 prostate; > 100 µM in the assay with K-562 leukemia; 37 µM in the assay with KM12 colon; 32.4 µM in the assay on LOX IMVI melanoma; 16.4 µM in the assay on NCI-H522 lung. The TGI was 42.3 µM in the assay on OVCAR-3 ovarian, 60.5 µM in the assay on OVCAR-4 ovarian, 72.2 µM in the assay on SK-MEL-2 melanoma and 63.3 µM with SNB-75 CNS.
In the case of `C[n+]1cc2cc(O)c(O)cc2c2ccc3cc(O)c(O)cc3c21`, the TGI was > 100 µM in the assay with A549 NSCLC; > 100 µM with DU-145 prostate; > 37.4 µM in the assay with K-562 leukemia; > 100 µM with KM12 colon; 18.3 µM with LOX IMVI melanoma; 3.43 µM in the assay with NCI-H522 lung. Further, the TGI with OVCAR-3 ovarian was 7.96 µM; in the assay on OVCAR-4 ovarian it was > 100 µM; in the assay with SK-MEL-2 melanoma it was 12 µM; in the assay on SNB-75 CNS it was 59.3 µM.
In the case of `CCOC(=O)c1c(N2CCCC2)[nH]c(=O)c(C(c2ccc(OC)cc2)c2c(O)c(C(=O)OCC)c(N3CCCC3)[nH]c2=O)c1O`, the TGI in the assay with A549 NSCLC, in the assay on DU-145 prostate, in the assay with K-562 leukemia, in the assay on KM12 colon, in the assay with LOX IMVI melanoma and with NCI-H522 lung was > 100 µM each time. Besides, the TGI in the assay on OVCAR-3 ovarian is > 100 µM; in the assay with OVCAR-4 ovarian, > 100 µM; with SK-MEL-2 melanoma it was 53.9 µM; with SNB-75 CNS, 69 µM.
Take `O=C(/C=C/c1ccc(Cl)cc1)Oc1ccc(C=C2CCC/C(=C\c3ccc(OC(=O)/C=C/c4ccc(Cl)cc4)cc3)C2=O)cc1`: the TGI with A549 NSCLC, with DU-145 prostate, in the assay with K-562 leukemia, in the assay on KM12 colon, in the assay on LOX IMVI melanoma and in the assay with NCI-H522 lung was > 100 µM throughout. Further, the TGI in the assay on OVCAR-3 ovarian, in the assay on OVCAR-4 ovarian, in the assay with SK-MEL-2 melanoma and in the assay on SNB-75 CNS was > 100 µM throughout.
For the molecule `CN(C)c1ccc(/C=C(\NC(=O)c2ccccc2)C(=O)NC(CC(=O)O)C(=O)O)cc1` (stereo not given), the TGI in the assay with A549 NSCLC is > 100 µM; with DU-145 prostate it was > 100 µM; in the assay on K-562 leukemia, 33.3 µM; with KM12 colon, > 100 µM; in the assay with LOX IMVI melanoma, > 100 µM; in the assay on NCI-H522 lung, 46.8 µM. In addition, the TGI in the assay with OVCAR-3 ovarian was > 100 µM; with OVCAR-4 ovarian it was > 100 µM; with SK-MEL-2 melanoma it was > 100 µM; in the assay on SNB-75 CNS it was 94.5 µM.
`CC1=CC2C3(C)C(C)(C(C)=CP3(=O)c3c(C(C)C)cc(C(C)C)cc3C(C)C)C1P2(=O)c1c(C(C)C)cc(C(C)C)cc1C(C)C` (stereo not given): the TGI amounted to 9.08 µM in the assay with A549 NSCLC; 14.2 µM in the assay with DU-145 prostate; 12.8 µM in the assay with K-562 leukemia; 4.05 µM with KM12 colon; 3.26 µM in the assay on LOX IMVI melanoma; 8.64 µM in the assay on NCI-H522 lung. Besides, the TGI with OVCAR-3 ovarian was 6.43 µM; with OVCAR-4 ovarian, 16.1 µM; in the assay on SK-MEL-2 melanoma it was 3.37 µM; in the assay on SNB-75 CNS it was 12.1 µM.
In the case of `COc1ccc2c(c1)c1c(n2CCN2CCCCC2)-c2cccc(OC)c2CC1`, the TGI was > 100 µM in the assay with A549 NSCLC; > 100 µM in the assay with DU-145 prostate; 31.6 µM with K-562 leukemia; 28.8 µM in the assay on KM12 colon; 38.7 µM in the assay with LOX IMVI melanoma; 18.8 µM in the assay on NCI-H522 lung. The TGI with OVCAR-3 ovarian was 34.5 µM; with OVCAR-4 ovarian, > 100 µM; in the assay with SK-MEL-2 melanoma, 32.3 µM; with SNB-75 CNS it was 46.1 µM.
As to `c1ccc(C2=NC3OC2c2ccccc23)cc1` (stereo not given), the TGI with A549 NSCLC, with DU-145 prostate, in the assay on K-562 leukemia, in the assay with KM12 colon, in the assay with LOX IMVI melanoma and with NCI-H522 lung was > 10 µM throughout. For the same molecule, the TGI in the assay with OVCAR-3 ovarian, in the assay on OVCAR-4 ovarian, in the assay with SK-MEL-2 melanoma and in the assay on SNB-75 CNS was > 10 µM throughout.
For `O=C1C=CC2(O[C@H](c3ccccc3)[C@@H](c3ccccc3)O2)[C@H](Sc2ccccc2O)C1`, the TGI in the assay on A549 NSCLC was determined as 16.4 µM; in the assay with DU-145 prostate it was 2.59 µM; in the assay on K-562 leukemia, 78.2 µM; in the assay with KM12 colon, 6.45 µM; with LOX IMVI melanoma, 0.338 µM; with NCI-H522 lung it was 0.182 µM. Besides, the TGI was 1.51 µM with OVCAR-3 ovarian, 2.43 µM with OVCAR-4 ovarian, 4.63 µM in the assay on SK-MEL-2 melanoma and 8.16 µM with SNB-75 CNS.
Consider `N#Cc1c(-c2ccc([N+](=O)[O-])cc2)cc(-c2ccc(Nc3ccnc4cc(Cl)ccc34)cc2)[nH]c1=O`, for which the TGI in the assay on A549 NSCLC, with DU-145 prostate, in the assay on K-562 leukemia, in the assay with KM12 colon, in the assay on LOX IMVI melanoma and in the assay on NCI-H522 lung was > 100 µM each time. Besides, the TGI in the assay on OVCAR-3 ovarian, with OVCAR-4 ovarian, with SK-MEL-2 melanoma and in the assay with SNB-75 CNS was > 100 µM throughout.
With `Cc1ccc2cccc(-c3cccc4ccccc34)c2n1`, the TGI in the assay with A549 NSCLC is > 100 µM; with DU-145 prostate, > 100 µM; with K-562 leukemia it was 21 µM; in the assay on KM12 colon it was 63.4 µM; in the assay on LOX IMVI melanoma, 31.3 µM; in the assay with NCI-H522 lung it was 66.5 µM. Also, the TGI in the assay on OVCAR-3 ovarian was > 100 µM; in the assay with OVCAR-4 ovarian it was > 100 µM; with SK-MEL-2 melanoma, 37.5 µM; in the assay on SNB-75 CNS it was 48.2 µM.
Regarding `Cc1c(C)n(-c2ccccc2)c2nc(S(C)=O)nc(S(C)=O)c12` (stereo not given), the TGI with A549 NSCLC was 31.7 µM; in the assay on DU-145 prostate it was 27.5 µM; with K-562 leukemia, 4.28 µM; with KM12 colon, 28.1 µM; in the assay with LOX IMVI melanoma it was 4.15 µM; in the assay on NCI-H522 lung, 4.59 µM. The TGI in the assay with OVCAR-3 ovarian came to 6.77 µM; in the assay on OVCAR-4 ovarian, 17.4 µM; with SK-MEL-2 melanoma it was 10.1 µM; in the assay on SNB-75 CNS, 23.3 µM.
Regarding `NS(=O)(=O)c1nnc(NC(=O)N(c2ccccc2)c2ccccc2)s1`, the TGI is > 100 µM with A549 NSCLC; 41 µM with DU-145 prostate; > 100 µM with K-562 leukemia; 56.8 µM in the assay on KM12 colon; 40.2 µM with LOX IMVI melanoma; 40.9 µM with NCI-H522 lung. For the same molecule, the TGI in the assay on OVCAR-3 ovarian was 69.7 µM; with OVCAR-4 ovarian, > 100 µM; with SK-MEL-2 melanoma it was 89.1 µM; in the assay on SNB-75 CNS, 72.4 µM.
As to `O=c1c(F)cn2c(=O)n1CCCCCCCn1c(=O)c(F)cn(c1=O)CCCCCCC2`, the TGI was > 100 µM in the assay on A549 NSCLC; 12.4 µM in the assay with DU-145 prostate; > 100 µM in the assay on K-562 leukemia; > 100 µM with KM12 colon; > 100 µM in the assay with LOX IMVI melanoma; > 100 µM in the assay on NCI-H522 lung. The TGI with OVCAR-3 ovarian was > 100 µM; in the assay with OVCAR-4 ovarian, 98.4 µM; in the assay on SK-MEL-2 melanoma, > 100 µM; in the assay on SNB-75 CNS, 27 µM.
`CN1CSC(=S)N(c2cccc(C(F)(F)F)c2)C1`: the TGI with A549 NSCLC is 73 µM; in the assay with DU-145 prostate, > 100 µM; in the assay with K-562 leukemia, 59.6 µM; in the assay on KM12 colon, 50.7 µM; with LOX IMVI melanoma, 43.1 µM; in the assay on NCI-H522 lung it was 30.8 µM. The TGI was 46.7 µM in the assay with OVCAR-3 ovarian, 37.5 µM in the assay on OVCAR-4 ovarian, 43.3 µM in the assay on SK-MEL-2 melanoma and > 100 µM in the assay with SNB-75 CNS.
Turning to `CCCCI(O)OS(=O)(=O)c1ccc(C)cc1`, the TGI with A549 NSCLC was > 100 µM; in the assay on DU-145 prostate it was > 100 µM; with K-562 leukemia, > 100 µM; with KM12 colon, > 100 µM; in the assay on LOX IMVI melanoma, 30.8 µM; in the assay on NCI-H522 lung, 48.9 µM. Besides, the TGI in the assay on OVCAR-3 ovarian, with OVCAR-4 ovarian, in the assay with SK-MEL-2 melanoma and with SNB-75 CNS was > 100 µM in each case.
For the molecule `NCCN1CCCCCc2ccccc21`, the TGI in the assay with A549 NSCLC, in the assay with DU-145 prostate, in the assay with K-562 leukemia, in the assay with KM12 colon, in the assay with LOX IMVI melanoma and in the assay on NCI-H522 lung was > 10 µM in each case. The TGI with OVCAR-3 ovarian, in the assay on OVCAR-4 ovarian, in the assay on SK-MEL-2 melanoma and in the assay with SNB-75 CNS was > 10 µM in each case.
For `O=c1[nH]c(NCc2ccncc2)nc2nc[nH]c12`, the TGI in the assay on A549 NSCLC, with DU-145 prostate, in the assay on K-562 leukemia, in the assay on KM12 colon, with LOX IMVI melanoma and in the assay on NCI-H522 lung was > 100 µM throughout. The TGI in the assay on OVCAR-3 ovarian, with OVCAR-4 ovarian, in the assay with SK-MEL-2 melanoma and with SNB-75 CNS was > 100 µM throughout.

For the origin of these results see PubChem BioAssay (NCI).
